pKi: −log10 of the molar value. “Also recorded” adds a separate entry of the source. Ends that are not written are not given here. Some results are limits rather than exact numbers.

What is called pKi is the Ki on a negative log10 scale, so that one unit is a factor of ten. A lower pKi goes with a large Ki. Usually Kp stands for tissue or fluid exposure divided by exposure in the circulation. In general, bioavailability refers to the share of a dose that reaches the circulation, judged against a reference dose that is usually intravenous.

The target in one data set is GHS-R (Homo sapiens, UniProt Q92847). Briefly: GHS-R antagonist activity (Ki) in a cell based assay. A digest of the protocol: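 Transfected COS-7 cells were labelled 24 h with [^3H]-myo-inositol and preincubated 30 min at 37 °C in HEPES buffer pH 7.4 with 10 mM LiCl, optionally with 1 U/ml adenosine deaminase. Compound was applied for 45 min at 37 °C. [^3H]-inositol phosphates were extracted with perchloric acid and isolated by anion-exchange resin.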

In data set [1] the test system is mice. Briefly: Plasma HbA1c and lipid profile after 28 day dosing. The conditions noted are these: at 28 days; for cholesterol levels / plasma HbA1c levels: versus vehicle. In kind it is in vivo. The source says:
(§1) Group housed, male, C57bl/6 mice received high fat diet and water ad lib to establish diet-induced obesity, and for the duration of the experiment. After acclimating to individual housing for at least 5 days, mice were then acclimated to bid oral gavage with vehicle for 7 days. Once acclimated, mice were culled into equal groups (n>10/group) according to body weight and compound dosing began. Mice received either vehicle or compound (bid, po) for periods up to 28 days, during which body weight and food intake were measured daily. Representative cohorts (based on BW) for each group were removed at 7, 14, 21 or 28 days for glucose tolerance tests and tissue analysis.
Mice are sacrificed by CO2 asphyxiation and terminal blood samples were collected via cardiac puncture. For HbA1c, whole blood is analyzed using a DCA2000+ glycated hemoglobin analyzer (Bayer Healthcare, Indianapolis, Ind.). Triglycerides, total cholesterol, and HDL-cholesterol were all measured using a Cholestech LDX lipid profile analyzer (Cholestech, Hayward, Calif.). As shown in FIG. 6 and FIG. 7, both plasma HbA1c and cholesterol levels were improved at 28 days in animals treated with compound 57 and compound 94 versus animals treated with vehicle alone.

The test system of data set [2] is C57bl/6 mice. Briefly: Ghrelin-induced food intake in mice dosed ip. It is filed as in vivo. The conditions noted are these: 1, 3, 10, 30 mpk ip after ghrelin ip; food intake at 1, 2, 4, 6 hours; relative to vehicle. The method, then:
Ad libidum low fat chow-fed male C57bl/6 mice were acclimated to individual housing for >5 days prior to the experiment. On the morning of the experiment food was removed from the cages and animals were then dosed ip (n=8/group) with either vehicle or ghrelin followed one minute later by a second ip injection containing either vehicle or one of several doses of compound (1, 3, 10, 30mpk ip). Immediately after the second dosing food was returned to the cages and food intake was measured 1, 2, 4 and 6 hours later.

Data set [3] relates to C57bl/6 mice. As to the kind of experiment: 28 days oral dosing in diet-induced obese mice: body weight and food intake. It is filed as in vivo. The conditions noted are these: bid po up to 28 days.
Description: as §1

The next data set has as its system mice (DIO). Briefly: Glucose tolerance test (GTT), insulin sensitivity in DIO mice. In kind it is in vivo.
Description: as §1
On the night prior to the GTT, mice (DIO) within each dose group (n=8/group) had their body weight measured and were then fasted overnight for 16 hours prior to the GTT. On the morning of the GTT a 40 µL blood sample was removed from the tail for baseline fasted blood glucose and plasma insulin measurements. Mice then received their normal dose of compound. One hour later mice were dosed with glucose ([…], either IP or PO) and further tail bleeds (40 µL) were taken at 15, 30, 60 and 120 minutes after the glucose dose for blood glucose and plasma insulin measurements. Mice were sacrificed following the final sample time. Baseline fasted blood glucose levels are provided in FIG. 4a for compound 57 and in FIG. 4d for compound 94.

A short description of data set [4]: Preliminary PK studies (IV/PO), oral bioavailability and brain/plasma ratio. In kind it is in vivo. The conditions noted are these: mouse, male diet-induced obese C57bl/6 mice; for Kp: brain and plasma, brain AUC vs plasma AUC; for bioavailability: oral bioavailability, plasma AUC PO vs IV. As for the experimental part:
Male, diet-induced obese, ad libidum fed, C57bl/6 mice were used for these preliminary PK studies. They were dosed (n=3 mice per data point) either IV or PO. Mice ere sacrificed and the blood/brains collected at the following times: IV samples were taken at 5, 15, 30, 60, 120, 240, 480 minutes after dosing; PO samples were taken at 15, 30, 60, 120, 240, 480 minutes after dosing. Plasma and brain samples were evaluated for the presence of compound. Oral bioavailability (% F) was determined by comparing the plasma AUCIV and AUCPO. The brain/plasma ratio was determined by comparing the brain AUC and plasma AUC values.

Data set [5] deals with mice. As to the kind of experiment: Fast refeed assay. In kind it is in vivo. As for the experimental part: Food is removed at 6 pm for an overnight (˜16 hour) fast. Beginning at 10 am on the next morning, mice are administered with either vehicle (e.g., saline+acetic acid, pH=5) or the compound of interest. Mice are then returned to their home cages and pre-weighed food (approximately 90 grams) is immediately returned to the food hoppers in each cage. The weight of the food remaining in the food hoppers is measured at 30 minutes, 1 hour, 2 hours, and 4 hours post compound/vehicle administration. Final body weights are then recorded for the mice.

[6] abbreviates: FIGS. 4a-4f, 7 to 28 days oral dosing.

Chain of GHS-R (Q92847 whole entry, species assumed): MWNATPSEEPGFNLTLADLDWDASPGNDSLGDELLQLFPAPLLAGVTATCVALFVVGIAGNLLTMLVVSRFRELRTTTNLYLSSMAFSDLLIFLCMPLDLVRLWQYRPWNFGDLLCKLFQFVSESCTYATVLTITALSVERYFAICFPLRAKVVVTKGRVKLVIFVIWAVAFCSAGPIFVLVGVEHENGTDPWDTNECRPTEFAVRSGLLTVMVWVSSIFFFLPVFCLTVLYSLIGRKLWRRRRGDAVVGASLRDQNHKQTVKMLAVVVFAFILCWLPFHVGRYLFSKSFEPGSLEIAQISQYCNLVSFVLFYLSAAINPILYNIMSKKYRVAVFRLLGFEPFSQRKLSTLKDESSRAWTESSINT

`CCN(CC)CCCS(=O)(=O)N[C@H](CCc1ccccc1)c1nc(Cc2ccc(Br)cc2)no1` [Compound 57, 3-Diethylamino-propane-1-sulfonic acid {(R)-1-[3-(4-bromo-benzyl)-[1,2,4]oxadiazol-5-yl]-3-phenyl-propyl}-amide] gave a pKi on GHS-R of over 7.00. For the same compound, in the data set on mice [1], the cholesterol levels entry is on record as “improved cholesterol levels” and the “plasma HbA1c levels” value is “improved plasma HbA1c levels”. Also, the ghrelin-induced food intake result with C57bl/6 mice [2] is “block ghrelin-induced food intake; also recorded: reduced food intake”. Besides, in the data set with C57bl/6 mice [3], the body weight result is recorded as “decreased body weight; also recorded: decrease in body weight” and the food intake result is listed as “No apparent effect on food intake”. Also, the insulin sensitivity result in the data set on mice (DIO) (setting [6]) is given as “improvement in insulin sensitivity”. In addition, the insulin sensitivity entry with mice (DIO) (GTT at 7 days of oral dosing) was “improved insulin sensitivity”. Moreover, in the data set with mice (DIO) (GTT at 21 days of oral dosing), the insulin sensitivity result is “improved insulin sensitivity”. In data set [4], the concentration ratio (Kp) worked out at 0.139 and the bioavailability worked out at 10.2%.
In turn, `CCN(CC)CCCS(=O)(=O)N[C@H](CCc1ccccc1)c1nc(-c2ccc(OC)cc2)n[nH]1` [Compound 94, 3-Diethylamino-propane-1-sulfonic acid {(R)-1-[5-(4-methoxy-phenyl)-2H-[1,2,4]triazol-3-yl]-3-phenyl-propyl}-amide] showed a pKi at GHS-R of over 7.00. Also, in the data set on mice [1], the triglyceride levels entry is reported as “improved triglyceride levels”, the cholesterol levels entry is on record as “improved cholesterol levels” and the “plasma HbA1c levels” value was “improved plasma HbA1c levels”. The ghrelin-induced food intake result in the data set with C57bl/6 mice [2] is given as “block ghrelin-induced food intake; also recorded: reduced food intake”. In the data set on C57bl/6 mice [3], the body weight result is listed as “decreased body weight; also recorded: decrease in body weight” and the food intake entry is on record as “No apparent effect on food intake”. The insulin sensitivity entry with mice (DIO) (setting [6]) is on record as “improvement in insulin sensitivity”. In addition, in the data set on mice (DIO) (GTT at 7 days of oral dosing), the insulin sensitivity entry is reported as “improved insulin sensitivity”. Further, in the data set on mice (DIO) (GTT at 28 days of oral dosing), the insulin sensitivity result is “improved insulin sensitivity”. For the same compound, in data set [4], the Kp was 0.087 and the bioavailability was found to be 63.2%.
As to “substance P (RPKPQQFFGLM-NH2; ends and bridges not checked; UniProt P20366 58-68, looked up)”, the feeding activity result with mice [5] was “alters feeding activity”.

These data come from patent US7829589B2, “Sulfonamide compounds and uses thereof” (Elixir Pharmaceuticals, Inc., priority 2005, dated 2010).
